Source: patent EP2149374A1 (WORLD-TRADE IMPORT-EXPORT, WTIE, A.G., priority 2007, dated 2008)

Legend:
[1] = Comparative clinical study: overall healing process (conclusions); type: in vivo; settings: patients with acute non-complex urinary tract infection, 5 days of treatment
Experimental: (§1) Urinary tract infection constitutes the most frequent urologic disease and is one of the most common infections in human beings. Urinary infection encompasses several clinical conditions, so the proper study thereof is very important for a suitable diagnose and treatment, in view of the extensive and not inconsiderable hospital and healthcare expenses these involve.
(§2) Only twice a day for 5 days,- group 2, received Vitamin C 100 mg.

[2] = Comparative clinical study: general urine examination (leukocytes in urine sediments, urine pH); type: in vivo, patients; settings: n=50 per group
Text: as §1
(§3) Inclusion criteria were the following: • - Patients from 18 to 75 years of age. • - Patients having a non-complex acute urinary infection diagnose. • > 12 leukocytes per mm3 in urine sediments. • - Urine counts of > 100,000 UFC/ml. • - Urine pH over 6.0. • - Microorganism identification.
as §2
General urine examination determined the color, appearance and density thereof, as well as the pH, Proteins, Glucose, Ketones, Blood, Bilirubin, Urobilinogen, Nitrites, Density and Leukocytes. […] Table 2. Leukocytes per mm3 in baseline urine sediments and up to Day 5 of the treatment.

E. coli = assay: Comparative clinical study: urocultive by antibiogram, urine counts (colony-forming units); type: in vivo, Escherichia coli; settings: n=50 per group
Text: as §1, §3, §2
Table 4. Urine Counts in UFC/ml. (Colony-Forming Units).

For `O=C1O[C@H]([C@@H](O)CO)C(O)=C1O` [Vitamin C, Ascorbic Acid], the healing process [1] was “not sufficient by itself to achieve a healing process”, the “pH (Day 1)” value ([2]; baseline urine pH, before treatment) was 7.6 and the “Leukocytes (Day 1)” value ([2]; baseline urine sediments, before treatment) was over 13 per mm3. For the same compound, the “pH (Day 5)” value ([2]; urine pH, Day 5 of the treatment, twice a day for 5 days) was 5.0, the “Leukocytes Day 5” value ([2]; urine sediments, Day 5 of the treatment, twice a day for 5 days) was under 10 per mm3 and the “UFC/ml (Day 1)” value (E. coli; baseline urine counts (Colony-Forming Units), before treatment) was >100,000/ml. UFC/ml. For the same compound, the “UFC/ml Day 5” value (E. coli; urine counts (Colony-Forming Units), Day 5 of the treatment, twice a day for 5 days) was 90.000/ml. UFC/ml.
